Where two headings read alike, the source gives them in different places. [invdT] = inverted (3'-3') thymidine; d = 2'-deoxy (DNA); m = 2'-O-methyl Some results are limits rather than exact numbers.

The subject of data set [1] is full length human vWF (SEQ ID NO 7). As to the kind of experiment: dot blot KD determination and extent of binding, full length human vWF.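 On all read-outs here: dot blot binding of aptamers to full length human vWF across a protein titration, incubated 30 minutes at room temperature in 1x DPBS with BSA.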 The settings on record: for % binding @ 100 nM vWF: extent of aptamer binding at 100 nM full length human vWF.
Assay in data set [2]: not given
The source holds these as a separate data set.

Data set [3] has as its system botrocetin induced platelet aggregation. Put plainly: Inhibition of botrocetin induced platelet aggregation (BIPA) in human PRP. The settings on record: human platelet rich plasma. The class given is cell-based. The gist of the method:
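Fresh human platelet-rich plasma, prewarmed at 37 degrees C, was preincubated one minute with aptamer (zero, 1 nM to 1000 nM) before botrocetin at a per-donor titrated aggregating concentration. Aggregation was followed as light transmittance; the value is the concentration blocking aggregation by 90% or greater after 6 minutes.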

The test system of data set [4] is full length human vWF binding to lyophilized platelets. Put plainly: Full length human von Willebrand Factor platelet binding assay (FACS). In kind it is cell-based. In outline:
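Aptamer titrations (0.1–1000 nM) pre-incubated with 5 nM full-length human vWF, then added to lyophilized platelets plus botrocetin for 15 min at 37 °C in PBS/0.5% BSA. Bound vWF detected by anti-vWF then FITC secondary antibody via flow cytometry MFI; % inhibition versus no-aptamer binding fitted for IC50.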

Data set [5] has as its system rabbit vWF domain A1 binding to lyophilized platelets. Put plainly: Rabbit von Willebrand Factor domain A1 platelet binding assay (FACS). In kind it is cell-based. As to conditions: read-out: FACS IC50 vs rabbit A1 domain. As for the experimental part: Botrocetin induces the binding of the A1 domain of vWF to platelets, as well as the full length protein. It was determined by the inventors that 6-Histidine-tagged rabbit A1 domain vWF purified protein could be induced to bind to human lyophilized platelets with botrocetin. Rabbit A1 binding to platelets is measured with an anti-poly-His antibody followed by incubation with a phycoerythrin conjugated secondary antibody. The degree of binding can be quantified by flow cytometric analysis. The ability of aptamers to block the binding of rabbit A1 to human fixed platelets was correlated with decreased fluorescence signal.
The ability of aptamers of the invention to block rabbit vWF domain A1 binding to lyophilized platelets was also assessed by flow cytometric analysis. Titrations of aptamers (zero, 0.1 nM to 1000 nM) were preincubated briefly with 4 nM of rabbit A1 vWF in FACS buffer (PBS plus 0.5% bovine serum albumin) at room temperature in a volume of 50 uL. Another 50 uL containing 5 uL of lyophilized platelets plus 1 uL of 0.1 U/uL of botrocetin in FACS buffer was added to aptamer/vWF. This reaction was allowed to proceed for 15 minutes at 37 degrees C. after which 200 uL of FACS buffer was added. Platelets were collected by a 6 minute spin at 1470 RCF and the supernatant was discarded. The pellets were resuspended in 100 uL of FACS buffer containing a 1:200 dilution of anti-Penta-HIS-biotin conjugate antibody and were incubated at room temperature for 30 minutes. After the dilution with 200 uL of FACS buffer, the platelets were spun at 1470 RCF for 6 minutes, and the supernatant was discarded. The pellets were resuspended in a 1:100 solution of anti-IgG-PE antibody and were incubated in the dark for 30 minutes at room temperature. The entire 100 uL was diluted into 200 uL of FACS buffer and analyzed immediately by flow cytometric analysis in the FACSCAN. Contaminating debris was eliminated from the analysis by drawing a gate around the population of single and aggregated platelets and collecting data from 10000 events. Median fluorescent intensity (“MedFI”) readings (which are generally equivalent to the MFI readings, described in Example 3a above, for comparative purposes) were quantified for each sample analyzed by flow cytometry. Background MedFI was subtracted from all data points. Percent inhibition was reported by calculating the percent value of binding of […] to platelets in the presence of aptamer at a given concentration relative to binding in the absence of any aptamer (see FIG. 7). IC50 values were determined by fitting the percent inhibition of vWF binding to platelets as a function of aptamer concentration to the equation: % inhibition=% inhibitionmax/(1+IC50/aptamer conc.)

The subject of data set [6] is rabbit vWF A1 domain (SEQ ID NO 6). Put plainly: 3-point dot blot screen, rabbit vWF A1 domain. In kind it is binding. The settings on record: 3-point dot blot screen, 20 nM rabbit vWF A1 domain; ratio of fraction of aptamer bound with target protein to fraction bound without protein. The gist of the method: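 Rabbit vWF A1 domain binding was screened by dot blot using three conditions: no target protein, human vWF, and rabbit vWF A1 domain at 100 nM (20 nM in the screen run twice). Radiolabeled aptamer bound to nitrocellulose was quantified, and results are expressed as the ratio of bound fraction with protein to bound fraction without protein.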

The target in the next data set is vWF (Homo sapiens, UniProt P04275, D1472H/Q852R/T1381A). As to the kind of experiment: cellular / biological vWF dependent assays of Example 3, not specified further. The class given is cell-based. The settings on record: in words; FACS, BIPA (and PFA-100) assays of Example 3. From the text: The effectiveness of various aptamers in blocking vWF function in several biological assays is described in this Example.
Sequence of vWF (P04275 764-2813 Q852R/T1381A/D1472H): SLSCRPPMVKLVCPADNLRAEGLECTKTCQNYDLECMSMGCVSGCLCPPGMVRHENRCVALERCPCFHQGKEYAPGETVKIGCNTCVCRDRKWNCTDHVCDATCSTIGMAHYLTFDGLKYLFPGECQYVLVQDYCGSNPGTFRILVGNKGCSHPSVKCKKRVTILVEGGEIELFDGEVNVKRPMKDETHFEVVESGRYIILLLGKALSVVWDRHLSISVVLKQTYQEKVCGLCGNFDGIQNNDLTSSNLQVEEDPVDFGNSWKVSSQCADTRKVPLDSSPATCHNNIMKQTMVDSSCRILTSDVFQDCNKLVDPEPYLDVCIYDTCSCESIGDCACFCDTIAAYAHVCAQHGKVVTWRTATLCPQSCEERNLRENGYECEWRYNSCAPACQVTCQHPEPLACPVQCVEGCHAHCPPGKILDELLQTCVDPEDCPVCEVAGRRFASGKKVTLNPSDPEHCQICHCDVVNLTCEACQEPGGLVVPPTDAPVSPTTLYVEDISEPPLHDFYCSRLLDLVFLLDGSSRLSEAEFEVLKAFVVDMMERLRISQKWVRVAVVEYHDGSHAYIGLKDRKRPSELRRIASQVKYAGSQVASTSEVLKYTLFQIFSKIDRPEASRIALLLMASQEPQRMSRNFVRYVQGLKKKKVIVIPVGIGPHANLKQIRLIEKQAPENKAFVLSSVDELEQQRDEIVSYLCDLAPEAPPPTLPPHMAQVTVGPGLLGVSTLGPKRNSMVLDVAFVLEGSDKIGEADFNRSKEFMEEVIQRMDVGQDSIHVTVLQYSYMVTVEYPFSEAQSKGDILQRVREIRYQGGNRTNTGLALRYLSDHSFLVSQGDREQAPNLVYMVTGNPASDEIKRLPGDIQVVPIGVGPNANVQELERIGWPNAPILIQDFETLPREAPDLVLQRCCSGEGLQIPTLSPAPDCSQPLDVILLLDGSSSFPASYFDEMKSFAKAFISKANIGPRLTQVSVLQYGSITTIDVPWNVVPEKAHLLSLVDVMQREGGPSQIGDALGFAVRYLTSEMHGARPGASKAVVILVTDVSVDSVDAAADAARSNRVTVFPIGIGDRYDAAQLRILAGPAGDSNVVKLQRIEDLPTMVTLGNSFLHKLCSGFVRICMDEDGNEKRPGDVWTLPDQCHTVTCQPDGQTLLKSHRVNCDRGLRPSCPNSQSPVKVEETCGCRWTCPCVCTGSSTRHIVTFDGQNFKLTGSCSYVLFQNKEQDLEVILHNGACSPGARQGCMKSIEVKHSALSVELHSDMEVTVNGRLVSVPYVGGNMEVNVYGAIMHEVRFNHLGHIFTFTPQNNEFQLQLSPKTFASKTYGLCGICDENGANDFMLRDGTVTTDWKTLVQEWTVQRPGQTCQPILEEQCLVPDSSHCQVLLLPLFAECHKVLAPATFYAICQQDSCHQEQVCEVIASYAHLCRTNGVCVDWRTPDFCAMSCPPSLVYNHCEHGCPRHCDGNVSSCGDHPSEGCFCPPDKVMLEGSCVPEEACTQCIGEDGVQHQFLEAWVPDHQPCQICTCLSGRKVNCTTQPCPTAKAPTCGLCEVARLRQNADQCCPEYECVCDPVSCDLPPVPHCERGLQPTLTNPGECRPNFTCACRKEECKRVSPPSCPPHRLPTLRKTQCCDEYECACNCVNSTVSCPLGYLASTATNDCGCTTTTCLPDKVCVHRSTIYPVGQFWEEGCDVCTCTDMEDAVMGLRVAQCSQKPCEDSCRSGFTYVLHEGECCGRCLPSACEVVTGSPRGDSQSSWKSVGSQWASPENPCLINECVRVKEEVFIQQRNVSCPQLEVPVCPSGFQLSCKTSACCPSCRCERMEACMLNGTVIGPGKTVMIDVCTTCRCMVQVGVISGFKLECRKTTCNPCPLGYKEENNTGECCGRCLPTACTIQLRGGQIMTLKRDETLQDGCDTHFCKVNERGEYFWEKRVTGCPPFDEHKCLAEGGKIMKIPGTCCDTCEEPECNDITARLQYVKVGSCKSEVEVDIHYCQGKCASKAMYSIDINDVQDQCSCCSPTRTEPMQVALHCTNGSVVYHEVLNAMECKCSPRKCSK
In one assay botrocetin is used. Botrocetin, a protein isolated from snake venom, is known to induce von Willebrand Factor binding to the gpib receptor on live and fixed platelets. This reaction causes agglutination of suspensions of fixed platelets via vWF multimerization. In preparations of platelet rich plasma (hereinafter “PRP”), vWF/botrocetin induction of agglutination is followed by a second phase of platelet aggregation caused by metabolic activation of the platelets. These two reactions: vWF binding to fixed platelets and vWF mediated platelet aggregation, can be used to measure the activity of aptamers of the invention.

A further data set relates to full length human vWF. Put plainly: 3-point dot blot screen, full length human vWF. In kind it is binding. As to conditions: 20 nM full length human vWF, ratio of fraction of aptamer bound with target protein to fraction bound without protein. In outline: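 Unique aptamer clones tested twice by nitrocellulose dot blot with no protein, 20 nM full-length human vWF or 20 nM rabbit vWF A1 domain. Value is fraction of aptamer bound with target divided by fraction bound without protein.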

Data set [7] has as its system rabbit vWF A1 domain (SEQ ID NO 6). Put plainly: dot blot KD determination, rabbit vWF A1 domain. The settings on record: dot blot, 12 point protein titration, 1xDPBS plus 0.1 mg/mL BSA, room temperature, 30 minutes. The class given is binding.
Procedure: A 12 point protein titration was used in the dot blot assay (300 nM, 100 nM, 30 nM, 10 nM, 3 nM, 1 nM, 300 pM, 100 pM, 30 pM, 10 pM, 3 pM, 0 pM) in 1×DPBS plus 0.1 mg/mL BSA at room temperature for 30 minutes.

Sequence of rabbit vWF A1 domain (SEQ ID NO 6) (as listed by the source): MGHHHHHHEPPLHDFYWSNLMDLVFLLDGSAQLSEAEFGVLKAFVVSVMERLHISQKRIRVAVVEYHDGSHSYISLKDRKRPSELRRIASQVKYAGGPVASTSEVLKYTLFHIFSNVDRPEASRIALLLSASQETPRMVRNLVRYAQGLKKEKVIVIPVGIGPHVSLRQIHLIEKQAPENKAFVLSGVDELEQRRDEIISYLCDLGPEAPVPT
Sequence of rabbit vWF domain A1 binding to lyophilized platelets (as listed by the source): as above

As usually defined, the Kd is the constant that tells how readily two partners part at equilibrium. Turning to “mCmGmGmCdCmG-s-TmGdCdGdGTmGmCdCmUdCdCmGmUmCmAmCPEGmGmUdGdCdAmGmUmGmCmCmG-3T (CGGCCGTGCGGTGCCUCCGUCACGUGCAGUGCCGT; chemistry not fully specified) [ARC1533]”, the “T½ Human plasma” value was 93 h. In data set [1] (Phase 4 and 5 modification), the “% binding @ 100 nM vWF” value was found to be 31.7%. Besides, the dissociation constant (Kd) in data set [1] (Phase 4 and 5 modification, full length human vWF, read-out: KD) was 4 nM.
For orientation: IC90 means the concentration at which the effect reaches the 90% level. A low value points to an effect from little substance. As usually defined, the IC50 is the midpoint of a concentration-inhibition curve. For “mGmCmGmUdGdCdAmGmUmGmCmCmUmUmCmGmGmCdCmGTmGdCdGdGTmGmCdCmUdCdCmGmUmCmAmCmGmC-3T (GCGUGCAGUGCCUUCGGCCGTGCGGTGCCUCCGUCACGC; sugars from the 5' end mmmmdddmmmmmmmmmmmdmdmddddmmdmddmmmmmmm, [invdT] at 3' end, backbone and methylation of C not given here) [ARC1346]”, the “T½ Rat plasma” value in data set [2] stood at 19 h. The molecule further gave an IC90 in data set [3] above 1000 nM. Also, in data set [1] (Phase 2 modification), the “% binding @ 100 nM vWF” value amounted to 51%. For the same molecule, in data set [1] (Phase 2 modification, full length human vWF, read-out: KD), the Kd was 11 nM. Further, in data set [1] (in words, dot blot), the “binding to human vWF” value is given as “the most potent”. The IC50 in data set [4] (read-out: FACS IC50 vs human full length vWF) turned out to be 50 nM; in data set [5], 180 nM.

B1: AMX238.H5: DNA SELEX 2 aptamer clone (nucleic acid)
DNA: CTACCTACGATCTGACTAGCGTGCAGTGCCTATTCTAGGCCGTGCGGTGCCTCCGTCACGCTTACTCTCATGTAGTTCC
modifications: DNA, backbone not given here
notes: DNA SELEX 2 aptamer clone
Take B1: the Kd in data set [1] (dot blot, 12 point protein titration, 1xDPBS plus 0.1 mg/mL BSA, room temperature, 30 minutes, read-out: full length human vWF KD) was 0.33 nM; in data set [7] it was 6 nM. Also, in data set [6], the “Screen Rabbit/No Protein” value stood at 3.46. In addition, the 50% inhibitory concentration (IC50) in [4] (5 nM full length human vWF, lyophilized platelets, botrocetin, read-out: Inhibition of full length hVWF binding in FACS assay, Average IC50) was 0.658 nM. Also, the “activity in the cellular / biological assays” value with vWF was “slightly more potent”. The “Screen- Human/No Protein” value in the data set on full length human vWF was determined as 3.75.

These data come from patent US7998940B2, “Aptamers to von Willebrand factor and their use as thrombotic disease therapeutics” (Archemix Corp., priority 2004, dated 2011).
